# Results as given in US20090137517A1, “SENSITIZING A CELL TO CANCER TREATMENT BY MODULATING THE ACTIVITY OF A NUCLEIC ACID ENCODING RPS27L PROTEIN” (Agency for Science, Technology and Research, priority 2006, published 2009).
# How the values were obtained:
# Format in all cases: cell-based, human
# RPS27L mRNA = test: RT-PCR of RPS27L mRNA after drug treatment of HCT116 cells; details: p53 wild-type HCT116 cells; ADR (1 μM) or 5-FU (375 μM); not in p53 null cells
# Text: FIG. 1A depicts the microarray analysis showing a set of genes whose expression was induced by the DNA damaging agents adriamycin (ADR) and 5-fluorouracil (5-FU) in p53 wild-type HCT116 cells (human colorectal carcinoma cell line containing wild type p53) but not in the p53 null counterpart. In both treatments, RPS27L, together with bona fide p53 targets such as cdkn1a (encodes p21), Pmaid (encodes Noxa) and ccd3 (encodes Puma), was unregulated in a p53-dependent manner. To validate the microarray data, RT-PCR analysis was performed (FIG. 1B).
# The human colon carcinoma cell line HCT116 and its p53 knock-out derivate cells were kindly provided by Dr. Bert Vogelstein. HCT116 cells can also be purchased under the ATCC number: CCL 247. The human osteosarcoma cell lines U2OS and Saos-2 can be purchased under the following ATCC numbers: U2OS, ATCC HTB-96; Saos-2, ATCC HTB-85 and SH-SY5Y, ATCC CRL-2266. Cells were grown in DMEM supplemented with 10% fetal bovine serum and penicillin-streptomycin (Invitrogen). Adriamycin, etoposide phosphate (VP16®) and 5-fluorouracil were purchased from Sigma-Aldrich.
# (§1) All RT-PCR was performed using the Titanium One Step RT-PCR Kit (BD Clontech).
# RPS27L protein [1] = test: Western blot of RPS27L protein levels in HCT116 cells; details: ADR (1 μM), 5-FU (375 μM), nutlin-3 (10 μM)
# Procedure: (§2) To investigate whether the p53-induced increase in RPS27L mRNA also gives rise to the increased protein levels, immunoblot analysis of p53 wild-type and p53 null HCT116 cells treated with ADR, 5-FU or nutlin-3, a small molecule MDM2 antagonist that directly activates p53 (Vassilev, L. T., Vu, B. T., et al. (2004) “In vivo activation of the p53 pathway by small-molecule antagonists of MDM2” Science, vol. 303, p. 844-848) was performed. […] To extend this observations to other cell lines and to other p53 stimuli, U2OS (human osteosarcoma cell line) and SH-SY5Y (human neuroblastoma cell line) cells (p53 wild type) as well as Saos-2 cells (human osteosarcoma cell line, p53-deficient) were treated with ADR, etoposide phosphate (VP16®) and 5-FU (FIG. 2B). […] Obviously, 5-FU treatment activates a posttranslational mechanism that causes RPS27L protein downregulation in spite of the increased mRNA expression.
# (§3) Cells were harvested and lysed with RIPA buffer (50 mM Tris-HCl, pH7.4, 1 mM EDTA, 150 mM NaCl, 1% Nonidet P-40, 0.5% sodium deoxycholate and proteinase inhibitors). The lysates were clarified by centrifugation at 16,000×g for 15 minutes at 4° C. Protein concentrations were determined with the Bradford Protein Assay Kit (Bio-Rad). 20-50 μg protein samples were separated by SDS-PAGE, transferred onto an Immobilon membrane (Millipore) and blotted with antibodies. Anti-p53 and anti-p21 antibodies were from Santa Cruz; anti-MDM2 and anti-Puma antibodies were from Merck. The rabbit polyconal antibody to RPS27L was raised against a 14 amino acid peptide from human RPS27L (SEQ ID NO: 2: LHPSLEEEKKKHKK).
# p53 and p21 = test: Western blot of p53 and p21 protein levels in HCT116 cells; details: ADR (1 μM), 5-FU (375 μM), nutlin-3 (10 μM)
# Procedure: as §2, §3
# RPS27L protein [2] = test: Western blot of RPS27L protein in U2OS, SH-SY5Y and Saos-2 cells; details: U2OS and SH-SY5Y (p53 wild type), Saos-2 (p53-deficient); VP16 (10 μM), ADR (1 μM), 5-FU (375 μM)
# Procedure: as §2, §3
# HCT116 cells [3] = test: Cell cycle and apoptosis analysis by flow cytometry (sub-G1 DNA content)
# Procedure: (§4) Cells cycle analysis was performed by DNA content quantification. The cells were fixed with 70% ethanol and stained with propidium iodide (50 μg/ml) staining. The stained cells were analyzed by FACScalibur (BD Bioscience). For the BrdU incorporation assay and mitochondrial membrane potential detection, the BrdU Flow Kit and JC-1 staining kit (both from BD Bioscience) were used, respectively, following the instruction manual. Stained cells were analyzed by FACScalibur (BD Bioscience) and quantified by using CellQuest software (BD Bioscience).
# HCT116 cells [4] = test: γ-H2AX focus formation, immunofluorescence and confocal microscopy
# Procedure: A deficient DNA damage checkpoint is expected to increase DNA damage. γ-H2AX foci are considered to be sensitive indicators of double strand breaks (DSB). We looked for γ-H2AX focus formation after etoposide phosphate (VP16®) treatment and monitored the reversibility post-VP16 washout.
# The cells were seeded in 4-well or 8-well culture slides. After treatment, cells were fixed with 3.7% paraformaldehyde in PBS and permeabilized with 0.2% Triton-X100. Cells were sequentially incubated with primary antibodies (see above under “Protein Analysis and Generation of Anti-RPS27L Antibody”) and Alexa Fluor 488 or Alexa Fluor 546-conjugated secondary antibodies (Invitrogen) for 1 hour each and mounted in Fluorsave (Merck) mounting medium. DRAQ5 (Biostats, UK) was diluted in mounting medium for nuclear staining. The stained cells were examined by Zeiss LSM510 confocal microscopy.
# HCT116 cells [5] = test: JC-1 staining, mitochondrial membrane potential by flow cytometry; details: RPS27L shRNA HCT116 cells, ADR treatment
# Procedure: To further define the nature of this cell death response the inventors used another assay, namely flow cytometric detection of cells stained with JC-1. The JC-1-staining identifies cell death events as a result of loss of mitochondria membrane potential (ΔΨm).
# as §4
# RPS27L = RPS27L gene silencing by RNA interference, RT-PCR; details: HCT116 cells transfected with siRNA, then VP16 (10 μM)
# Procedure: (§5) The siRNA oligo targeting RPS27L (SEQ ID NO: 1: ggttgctacaagattacta was purchased from Proligo, and transfection was conducted using Lipofectamine 2000 (Invitrogen) according to the manufacturer's information. To generate stable knock-down cell lines, the siRNA sequences were cloned into the pSIREN-RetroQ retroviral expression vector (BD Bioscience) according to the manufacturer's instruction. Virally infected cells were selected in a medium containing 2 μg/ml puromycin and individual drug-resistant clones were collected, pooled and expanded.
# as §1
# RPS27 = test: Specificity of RPS27L siRNA, RT-PCR of RPS27; details: HCT116 cells transfected with siRNA, then VP16 (10 μM)
# Procedure: as §5, §1
compound,measurement,setting,value
"O=c1[nH]cc(F)c(=O)[nH]1 [5-FU, 5-fluorouracil]",RPS27L mRNA,RPS27L mRNA,induced
same,RPS27L protein level,RPS27L protein [1],downregulated
same,p53 and p21 protein,p53 and p21,increased p21 protein expression
same,RPS27L protein level,RPS27L protein [2],downregulation
same,cell cycle and apoptosis response,"HCT116 cells [3]; HCT116 p53+/+ and p53−/−, ADR (1 μM) or 5-FU (375 μM) for 48 h",p53-dependent apoptosis
"COc1cc([C@@H]2c3cc4c(cc3[C@@H](O[C@@H]3O[C@@H]5CO[C@@H](C)O[C@H]5[C@H](O)[C@H]3O)[C@H]3COC(=O)[C@H]23)OCO4)cc(OC)c1OP(=O)(O)O [etoposide phosphate (VP16®), etoposide phosphate]",RPS27L protein level,RPS27L protein [2],p53-dependent upregulation of RPS27L protein
same,DSB foci (γ-H2AX staining) after treatment,"HCT116 cells [4]; HCT116 cells, VP16 (20 μM)",prominent DSB foci
same,γ-H2AX staining after VP16 removal,"HCT116 cells [4]; RPS27L-depleted HCT116 cells, after VP16 removal",sustained γ-H2AX staining
same,γ-H2AX staining after VP16 removal,"HCT116 cells [4]; control HCT116 cells, by 16 hours after VP16 removal",almost undetectable
COc1ccc(C2=N[C@@H](c3ccc(Cl)cc3)[C@@H](c3ccc(Cl)cc3)N2C(=O)N2CCNC(=O)C2)c(OC(C)C)c1 [nutlin-3],RPS27L protein level,RPS27L protein [1],increased RPS27L protein levels
same,p53 and p21 protein,p53 and p21,accumulation of p53 and p21
"RPS27L shRNA: short hairpin of SEQ ID NO: 1 to deplete RPS27L, stably expressed in HCT116 from pSIREN-RetroQ retroviral vector (guide GGTTGCTACAAGATTACTA)",cell death (sub-G1 DNA content),"HCT116 cells [3]; p53 wild-type HCT116 stably expressing RPS27L shRNA, ADR (1 μM) 48 h",marked cell death
same,percentage of cells with lower membrane potential (ΔΨm),HCT116 cells [5],33.5%
"RPS27L siRNA: siRNA oligo targeting RPS27L, SEQ ID NO: 1: ggttgctacaagattacta, purchased from Proligo (GGTTGCTACAAGATTACTA; listed as DNA, chemistry not given here)",cell death (sub-G1 DNA content),"HCT116 cells [3]; HCT116 cells, transient siRNA transfection, then ADR (1 μM) 24 h",marked increase in cell death
same,cell death (sub-G1 DNA content),"HCT116 cells [3]; HCT116 cells, transient siRNA transfection, then etoposide phosphate (VP16) (10 μM) 24 h",marked increase in cell death
same,cell death (sub-G1 DNA content),"HCT116 cells [3]; p53 null HCT116 cells, transient siRNA transfection, then ADR or VP16",not in p53 null counterparts
same,RPS27L expression (mRNA),RPS27L,nearly completely ablated
same,effect on closely-related RPS27 (mRNA),RPS27,no effect
